Results: US9586885B2, “Compounds for use in the treatment of inflammatory bowel disease” (Venantius Limited, priority 2011, dated 2017)
Read-outs that look alike come from different tables or passages of the source.

Experiments:
5% DSS colitis = test: Acute murine 5% DSS colitis model; format: in vivo; conditions: for effect on DAI compared to vehicle control: FIG. 5; for inhibition of colon shortening (colon length) day 7 versus vehicle: FIG. 10; for colon pathology (histology score) relative to vehicle: FIG. 12; for colon IL1β level versus DSS vehicle / colon TNFα level versus DSS vehicle / colon IL6 level versus DSS vehicle / reduction of colonic myeloperoxidase (MPO) activity: day 7; for colon IL1β level versus DSS vehicle: FIG. 14(a); for colon TNFα level versus DSS vehicle: FIG. 14(b); for colon IL6 level versus DSS vehicle: FIG. 14(c); for reduction of colonic myeloperoxidase (MPO) activity: FIG. 13; for DAI on the day of autopsy versus vehicle controls: FIG. 9
Excerpt: The study is widely used as a model for studying the pathogenesis of UC and also for screening new therapeutic interventions for the treatment of UC.
In these studies, an acute colitis model was used, with 5% DSS administered in the drinking water of BALB/c mice. This dosage regime induces severe acute colitis, by days 7-8 mice had overt rectal bleeding and marked weight loss; unless sacrificed beforehand, all mice would have died by days 10-12.
Specific Pathogen-Free BALB/c mice, 6-8 weeks of age, were obtained from a commercial supplier (Harlan UK). Mice were fed irradiated diet and housed in individually ventilated cages (Tecniplast UK) under positive pressure.
DSS (5%) was dissolved in drinking water. Compounds were administered orally at a dose of 10 mg/kg or 30 mg/kg on days 0-7, and mice were culled on day 8 or day 9, depending on the severity of the disease. The mice were checked each day for morbidity and the weight of individual mice was recorded. Induction of colitis was determined upon autopsy, length of colon and histology. Colons were recovered and stored at −20° C. for immunological analysis. All of the compounds and experimental groups are randomly alphabetically labelled. Throughout experiments all data recording was performed in a blind manner. The codes on boxes/groups were not broken until after the data was analysed i.e. boxes labelled A, B, C etc were identified as untreated, DSS-treated, or DSS+compound-treated.
To quantify the extent of colitis, a disease activity index (DAI) was determined based on weight loss, faecal blood and stool consistency. A score was given for each parameter, with the sum of the scores used as the DAI. For each treatment group n=8.
All compounds were prepared for oral gavage (0.1 mL per os (p.o.) per 10 g body weight) as a suspension in 0.5% carboxymethyl cellulose/2% Tween 80, at a dose of 3-30 mg/Kg.

[1] = Solubility in water and buffers; format: physicochemical; conditions: for aqueous solubility (in words): free acid enantiomers
Protocol: The sodium salt, potassium salt, calcium salt, α-methylbenzylamine salt and N-Methyl-(D)-Glucamine salt were synthesised.
The solubility of the four compounds was determined: […]

[2] = Partition coefficient by HPLC method (reverse phase C18); format: physicochemical; conditions: for Acid Log10 POW: acidic pH; for Basic Log10 POW: alkaline pH; for Neutral Log10 POW: neutral pH
[3] = system: chronic colitis in IL10^--/-- mice; test: Chronic IL10-/- colitis model; format: in vivo, BALB/c strain mice; conditions: 300 mg/kg/week oral, MWF
Protocol: FIG. 15 Is a grph showing weight loss in IL10^--/--mice treated with vehicle or compound 6. Mice were administered compound 6 (300 mg/kg/week) or vehicle orally on a Monday/Wednesday/Friday (MWF) dosing schedule. Mice were ˜4 weeks of age at start of experiment and were treated for 9 weeks. Mice were weighed weekly and data are presented as Mean±SEM from 9-12 mice per group. Mice were monitored for overt disease, rectal prolapse, and moribund animals were humanely killed;
Mice with a deletion in the IL10^--/-- gene spontaneously develop chronic colitis, with the age of onset and the severity of the disease being dependent on background mouse strain and the conditions in which the animals are housed. The onset of colitis in IL10^--/-- mice housed under the conditions used in this study was also strain dependent, with an earlier onset and greater severity, in terms of mortality, in BALB/c strain mice relative to C57BL/6 strain animals. In this experiment, animals received oral treatment on a MWF regime over 9 weeks. Initially, both groups of mice progressively gain weight (FIG. 15). […] By week 9 animals had marked weight loss, with one moribund animal humanely killed on day 60 in each group. As other mice were losing weight and developing clinical symptoms of disease, both groups were culled at week 9 (day 63) and analysed. […] Serum was recovered from mice and Serum Amyloid A (SAA) and was analysed as a marker for severity of colitis.

[4] = 10 mg/kg daily for 7 days, vehicle 9.3±0.51, FIG. 6
[5] = 30 mg/kg p.o. daily for 7 days, vehicle controls 9.0+0.53, FIG. 4

O=C(O)c1ccc(C[C@@]2(C3=Cc4ccccc4C3)Cc3ccccc3[C@H]2O)cc1 (single isomer, unassigned) [Compound 2]
disease activity index (DAI) at day 7 (5% DSS colitis; [4]): 2.1±0.7 | activity in 5% DSS murine colitis model (conclusion) (5% DSS colitis; 30 mg/kg p.o. daily for 7 days): highly active | disease activity index (DAI) at day 7 (5% DSS colitis; [5]): 2.5±0.71 | aqueous solubility (in words) [1]: limited aqueous solubility

O=C(O)c1ccc(C[C@]2(C3=Cc4ccccc4C3)Cc3ccccc3[C@@H]2O)cc1 (single isomer, unassigned) [Compound 3]
activity in 5% DSS murine colitis model (conclusion) (5% DSS colitis; 30 mg/kg p.o. daily for 7 days): minimal activity | disease activity index (DAI) at day 7 (5% DSS colitis; [5]): 5.3±0.6 | DAI versus vehicle at day 6 (5% DSS colitis; 30 mg/kg p.o. daily, FIG. 3): no statistical (P>0.05) difference

O=C(O)c1ccc(C[C@@]2(C3=Cc4ccccc4C3)Cc3ccccc3[C@@H]2O)cc1 [Compound 4, 4-(((1R,2S)-1-hydroxy-2,3-dihydro-1H,1′H-2,2′-biinden-2-yl)methyl)benzoic acid]
activity in 5% DSS murine colitis model (conclusion) (5% DSS colitis; 30 mg/kg p.o. daily for 7 days): almost devoid of activity | DAI versus vehicle at any time point (5% DSS colitis; 30 mg/kg p.o. daily for 7 days, FIG. 3): without activity

O=C(O)c1ccc(C[C@]2(C3=Cc4ccccc4C3)Cc3ccccc3[C@H]2O)cc1 [Compound 5, 4-(((1S,2R)-1-hydroxy-2,3-dihydro-1H,1′H-2,2′-biinden-2-yl)methyl)benzoic acid]
effect on DAI compared to vehicle control (5% DSS colitis; 10 mg/kg daily for 7 days): no significant (P>0.05) effect | activity in 5% DSS murine colitis model (conclusion) (5% DSS colitis; 30 mg/kg p.o. daily for 7 days): highly active | disease activity index (DAI) at day 7 (5% DSS colitis; [5]): 3.2±0.73 | aqueous solubility (in words) [1]: limited aqueous solubility | Acid Log10 POW [2]: 3.9 | Basic Log10 POW [2]: 3.7 | Neutral Log10 POW [2]: 3.7

O=C(O)c1ccc(C[C@@]2(C3=Cc4ccccc4C3)Cc3ccccc3[C@H]2O)cc1 [Compound 6, 6-(Methylamino)hexane-1,2,3,4,5-pentanol 4-(((1S,2S)-1-hydroxy-2,3-dihydro-1H,1′H-2,2′-biinden-2-yl)methyl)benzoate]
inhibition of colon shortening (colon length) day 7 versus vehicle (5% DSS colitis; 3 mg/kg): did not have a significant effect | colon pathology (histology score) relative to vehicle (5% DSS colitis; 10 mg/Kg, P<0.01): highly statistically significant reduction | disease activity index (DAI) at day 7 (5% DSS colitis; [4]): 3.3±0.52 | inhibition of colon shortening (colon length) day 7 versus vehicle (5% DSS colitis; 10 mg/kg): did have a significant effect | therapeutic efficacy in the DSS model relative to prednisolone (5% DSS colitis; 30 mg/Kg versus prednisolone 5 mg/Kg): comparable, or better, efficacy relative to prednisolone | colon pathology (histology score) relative to vehicle (5% DSS colitis; 30 mg/Kg, P<0.01): highly statistically significant reduction | colon length day 7 compared with Prednisolone (5% DSS colitis; 30 mg/kg versus Prednisolone 5 mg/kg, P<0.05): significantly better than Prednisolone | colon IL1β level versus DSS vehicle (5% DSS colitis; 30 mg/kg): significant (P<0.05, 30 mg/kg) and dose-dependant reduction | colon TNFα level versus DSS vehicle (5% DSS colitis; 30 mg/kg): significant (P<0.05, 30 mg/kg) and dose-dependant reduction | colon IL6 level versus DSS vehicle (5% DSS colitis; 30 mg/kg): significant (P<0.05, 30 mg/kg) and dose-dependant reduction | reduction of colonic myeloperoxidase (MPO) activity (5% DSS colitis; 30 mg/kg, P<0.05): 63% | inhibition of colon shortening (colon length) day 7 versus vehicle (5% DSS colitis; 30 mg/kg): did have a significant effect | severity of colitis, multiple parameters of disease (5% DSS colitis; 3, 10 and 30 mg/Kg oral daily for 7 days, dose-dependent): ameliorated the severity of colitis | DAI on the day of autopsy versus vehicle controls (5% DSS colitis; 3-30 mg/kg, each dose level): significantly (P<0.05−P<0.01) lower DAI | overt reactions in mice (5% DSS colitis; oral daily for 7 days, 3, 10 and 30 mg/Kg): no overt reactions | survival over 9 weeks by Kaplan-Meier analysis versus vehicle [3]: no statistical difference in survival | mortalities ([3]; 9 weeks, vehicle 25%): 9.2% | weight gain ([3]; 9 weeks, vehicle stopped gaining from week 5, FIG. 15): maintained weight gain until week 8 | Serum Amyloid A (SAA) levels relative to vehicle ([3]; week 9, FIG. 16): significantly (P<0.05; Student's t-test) reduced SAA levels | extent of colon pathology (histology score of distal colon) relative to vehicle ([3]; week 9, P<0.05, FIG. 18): significantly reduced | solubility ([1]; Milli-RO water, * = estimated value, read-out: solubility Milli-RO H20): > 60 mg/mL | solubility ([1]; aqueous buffer, pH 7.0 buffer, * = estimated value, read-out: solubility pH 7.0 Buffer): > 60 mg/mL | solubility ([1]; aqueous buffer, pH 9.0 buffer, * = estimated value, read-out: solubility pH 9.0 Buffer): > 3 mg/mL | Acid Log10 POW [2]: 2.6 | Basic Log10 POW [2]: 4.3 | Neutral Log10 POW [2]: 3.5

CNCC(O)C(O)C(O)C(O)CO.O=C(O)c1ccc(C[C@]2(C3=Cc4ccccc4C3)Cc3ccccc3[C@H]2O)cc1 [Compound 7, 6-(Methylamino)hexane-1,2,3,4,5-pentanol 4-(((1S,2R)-1-hydroxy-2,3-dihydro-1H,1′H-2,2′-biinden-2-yl)methyl)benzoate]
effect on DAI compared to vehicle control (5% DSS colitis; 10 mg/kg daily for 7 days): no significant (P>0.05) effect | solubility Milli-RO H20 ([1]; Milli-RO water, * = estimated value, listed as Compound 5 N-Methyl-D-Glucamine salt): >60,000* μg/mL | solubility pH 4.0 Buffer ([1]; pH 4.0 buffer): 0.14 μg/mL | solubility pH 7.0 Buffer ([1]; pH 7.0 buffer, * = estimated value, listed as Compound 5 N-Methyl-D-Glucamine salt): >60,000* μg/mL | solubility pH 9.0 Buffer ([1]; pH 9.0 buffer, * = estimated value, listed as Compound 5 N-Methyl-D-Glucamine salt): >60,000* μg/mL | Acid Log10 POW [2]: 3.8 | Basic Log10 POW [2]: 3.5 | Neutral Log10 POW [2]: 3.5

C[C@]12C=CC(=O)C=C1CC[C@@H]1[C@@H]2[C@@H](O)C[C@@]2(C)[C@H]1CC[C@]2(O)C(=O)CO [Prednisolone, reference compound]
colon pathology (histology score) relative to vehicle (5% DSS colitis; 5 mg/Kg): no significant improvement | colon IL1β level versus DSS vehicle (5% DSS colitis; 5 mg/kg): reduced (p<0.05) | colon TNFα level versus DSS vehicle (5% DSS colitis; 5 mg/kg): reduced (p<0.05) | colon IL6 level versus DSS vehicle (5% DSS colitis; 5 mg/kg): reduced (p<0.05) | reduction of colonic myeloperoxidase (MPO) activity (5% DSS colitis; 5 mg/kg, P<0.05): 54% | DAI on the day of autopsy versus vehicle controls (5% DSS colitis; 5 mg/kg): reduced DAI scores | inhibition of colon shortening (colon length) day 7 versus vehicle (5% DSS colitis; 5 mg/kg): did have a significant effect
